Patent US8937039B2, “Peptide-based peroxidase inhibitors and methods of using same” (The Medical College of Wisconsin, Inc., priority 2009, dated 2015)
Entries after “also recorded” stand apart in the source; their conditions may differ. Residues, ends and D or L forms follow the SMILES beside them.

Experiments:
[1] = biological target: T1, MPO (Homo sapiens, UniProt P05164); test: MPO-mediated LDL oxidation (conjugated diene formation, 234 nm); format: biochemical; design: purchased Lee Biosolutions (St. Louis, Mo.); details: for Conjugated diene formation in LDL (in words): MPO/H2O2 (300 μM)/nitrite, more than 2 hours
T1 sequence (P05164 49-745): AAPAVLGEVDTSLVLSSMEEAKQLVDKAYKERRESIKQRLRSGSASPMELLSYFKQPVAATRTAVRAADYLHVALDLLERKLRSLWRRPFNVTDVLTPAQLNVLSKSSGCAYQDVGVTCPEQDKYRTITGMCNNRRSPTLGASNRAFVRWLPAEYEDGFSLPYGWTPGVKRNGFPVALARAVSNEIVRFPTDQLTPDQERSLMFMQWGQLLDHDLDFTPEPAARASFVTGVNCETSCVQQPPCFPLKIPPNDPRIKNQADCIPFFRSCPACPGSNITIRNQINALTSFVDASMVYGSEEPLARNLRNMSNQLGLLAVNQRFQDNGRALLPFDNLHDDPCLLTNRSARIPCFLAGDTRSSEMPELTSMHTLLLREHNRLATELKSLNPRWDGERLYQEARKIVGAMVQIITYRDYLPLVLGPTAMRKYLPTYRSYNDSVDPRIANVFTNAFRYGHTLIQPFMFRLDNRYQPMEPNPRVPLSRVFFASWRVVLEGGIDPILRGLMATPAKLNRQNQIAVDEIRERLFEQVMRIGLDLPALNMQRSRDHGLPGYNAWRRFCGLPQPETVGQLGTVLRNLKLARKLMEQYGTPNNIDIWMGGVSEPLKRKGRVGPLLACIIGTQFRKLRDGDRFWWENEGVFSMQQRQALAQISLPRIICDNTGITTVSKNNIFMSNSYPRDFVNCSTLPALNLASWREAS
Protocol: MPO-mediated oxidation of LDL. […] LDL oxidation was monitored at 234 nm at room temperature on a HP UV/VIS spectrometer. Absorbance traces represent the average of duplicate experiments.
MPO-mediated LDL Oxidation. […] Rates of LDL oxidation were monitored at room temperature at 234 nm, the wavelength maximum for conjugated dienes.
MPO-mediated LDL Conjugated Diene Formation: Reaction mixtures contained LDL (0.15 mg/mL), NaNO2 (100 μM), H2O2 (100 μM), MPO (20 nM) and increasing concentrations of KYC or equimolar concentrations of various compounds in a phosphate buffer (100 mM, pH 7.4) containing DTPA (100 μM). Rates of LDL conjugated diene formation were determined by following changes in absorbance at 234 nm, the wavelength maximum for conjugated dienes, on a UV-Vis spectrophotometer (Agilent Model 8453) at room temperature.

[2] = tested on: BAEC; test: MPO-mediated BAEC injury (cell morphology); format: cell-based, bovine; details: MPO 2.5 μg/ml, H2O2 50 μM
Protocol: MPO-mediated BAEC Injury: BAEC (passage 6-8) were cultured in 24 well plates in DMEM containing 10% FBS until 70-80% confluent. The cells were washed with Hank's balanced salt solution (HBSS) 3 times and incubated with MPO (2.5 μg/mL) and H2O2±KYC at the concentrations indicated in HBSS for 30 min. Finally, BAEC were examined visually and images captured for permanent record using a Nikon Eclipse microscope (Model TS 100) fitted with a Nikon Digital Sight DS-U2 camera and NIS-Elements F 3.0 imaging software. Images are representative of 3 independent experiments.
KYC protects BAEC from MPO-induced injury. […] BAEC in 96 well were treated with 100 μl of HBSS containing MPO (2.5 μg/ml) and H2O2 (50 μM) for 20 min with or without KYC. Changes in cell morphology were recorded as described in a previous report by others.

[3] = biological target: T1, MPO; test: MPO-mediated LDL Trp oxidation (Trp fluorescence); format: biochemical; design: purchased Lee Biosolutions (St. Louis, Mo.); details: MPO/H2O2/NO2−, 30 min, room temperature
Protocol: MPO-mediated LDL Trp Oxidation: Reaction mixtures containing LDL (0.15 mg/mL), NaNO2 (100 μM), H2O2 (100 μM), MPO (20 nM) and increasing concentrations of KYC in a phosphate buffer (100 mM, pH 7.4) containing DTPA (100 μM) were incubated at room temperature for 30 min. Reactions were stopped by addition of catalase (2,000 units/mL) and the oxidation of Trp in LDL was determined by measuring changes in the intrinsic fluorescence of Trp (Ex 294 nm/Em 345 nm) using a LC-50 fluorometer (Perkin Elmer, Waltham Mass.).

[4] = biological target: T1, MPO; test: MPO-mediated nitration of LDL (dot blot); format: biochemical; design: purchased Lee Biosolutions (St. Louis, Mo.); details: MPO 50 nM, H2O2 50 μM, NaNO2 50 μM, 37° C., 4 h
Protocol: MPO-mediated Nitration of LDL: LDL (0.5 mg/mL) was incubated with MPO (50 nM), H2O2 (50 μM), NaNO2 (50 μM) and increasing concentrations of KYC in phosphate buffer (100 mM, pH 7.4) containing DTPA (100 μM) at 37° C. for 4 h. Reactions were stopped by addition of catalase (2,000 units/mL). Formation of NO2Tyr was assessed by dot blot analysis. Briefly, LDL solutions were mixed with 1% SDS and centrifuged (12000 g, 15 min) Aliquots of supernatants were applied to a nitrocellulose membrane with a dot blot apparatus (Biorad model: Bio-Dot). The levels of NO2Tyr were visualized using a rabbit polyclonal anti-NO2Tyr antibody (EMD, Gibbstown, N.J.) and the ECL plus kit from Thermo-Peirce (Rockford, Ill.).

[5] = tested on: lung cancer mice; test: BHT-treated lung cancer mice (BALF activities, tumor number); format: in vivo, mouse
Protocol: Inhibiting MPO decreases PMN degranulation in lung cancer mice. PMNs are considered to play a causal role in initiating tumor formation. Effects of KYC on PMN recruitment and tumor formation in lung cancer mice were determined. Briefly, mice were treated with BHT (single dose: 300 mg/kg) and KYC (0.3 mg/kg/d).

[6] = BHT 300 mg/kg single dose, KYC 0.3 mg/kg/d, after 3 days

CC(=O)N[C@@H](CCCCN)C(=O)N[C@@H](Cc1ccc(O)cc1)C(=O)N[C@@H](CS)C(N)=O [KYC, N-acetyl Lysyltyrosylcysteine Amide] (Ac-Lys-Tyr-Cys-NH2)
Conjugated diene formation in LDL (in words) ([1]; 20 μM KYC): totally suppresses
MPO/H2O2/nitrite-mediated LDL oxidation (in words) ([1]; 25 μM, H2O2 100 μM, NaNO2 100 μM): completely suppressed
MPO/H2O2-mediated LDL oxidation in the absence of nitrite (in words) ([1]; 25 μM, without NaNO2): inhibited; also recorded: did not increase LDL oxidation
Conjugated diene formation in LDL (in words) ([1]; 100 μM KYC): totally suppresses
BAEC morphology after MPO/H2O2 (in words) ([2]; 50 μM KYC): almost the same morphology as cultures that were not exposed to MPO
Protection of BAEC from MPO-induced injury (in words) ([2]; 20 min, increasing KYC): dose-dependently increased protection
MPO-dependent oxidation of Trp residues in LDL (in words) [3]: protected the Trp residues
NO2Tyr in LDL (in words) [4]: markedly reduces
Decrease of the number of tumors vs untreated mice ([5]; 6 weeks of KYC treatment, p=0.02): ~50%
Elastase activity in BALF (in words) [5, 6]: significantly decreased
MPO activity in BALF (in words) [5, 6]: significantly decreased
PMN number in BALF (in words) [5, 6]: did not reduce
